Assay results taken from US5565444A, “Osteogenesis promoter and osteoporosis remedy” (LTT Institute Co., Ltd., priority 1993, dated 1996).
Read-outs that look alike come from different tables or passages of the source.

What was measured:
[1] = background report, cited from earlier work
[2] = tested on: Osteogenic Precursor Cells in Bone Marrow; assay: Effects on the number of osteogenic precursor cells in bone marrow, Experiment 2 (FCFU formation after subcutaneous administration); format: in vivo; details: 7 successive days, Lewis rat, N = 4
Protocol: (§1) After the invention compound was administered to a 7-weeks old Wistar or Lewis rat intraperitoneally (Experiment 1) or dorsi-subcutaneously (Experiment 2) for 7 successive days, the femurs and tibias were excised. Marrow cells were collected from the bones so obtained, followed by incubation in a 25-cm^2 culture flask for 7 days. For the incubation, the αMEM medium containing 15% fetal calf serum was used. Subsequent to giemsa or alkaline phosphatase staining, the number of fibroblast colony forming units on the culture flask was counted. The number of the fibroblast colony forming units (=FCFUs) is known to correlate with the in vitro ostogenesis. The total number of FCFUs and the number of FCFUs positive to alkaline phosphatase are shown in Table 1 and Table 2, respectively. Experiment 1:
Influence of the subcutaneous administration of
the invention compounds and testosterone for 7
successive days on the formation of FCFUs:
The number of FCFUs (after 7 days) (Lewis rat N = 4)

osteocalcin = assay: Effects on serum osteocalcin (radioimmunoassay); format: in vivo, Wistar rat
Protocol: A 7-weeks old Wistar rat was intraperitoneally administered at 0.1 mg/kg with 11β-OH-Δ^4 -A for 7 successive days and the concentration of osteocalcin in the serum was measured by radioimmunoassay.

[3] = Improving effects on the bone mass reduction in postovariectomy osteoporosis (bone-salt amount by DXA); format: in vivo, female Wistar rat (ovariectomized); details: three times a week, 3 months, FIGS. 3-6
Protocol: From a 7-weeks old female Wistar rat, the ovaria were both excised. Three months after that, the administration of a drug was started. As the drug, 11β-OH-^4 -A or dihydroepiandrosterone (DHEA) was dorsisubcutaneously administered three times a week, each, at 1 mg/kg. After the drug administration was continued for 3 months, the femurs and shinbones were collected and the bone-salt amount was measured at three places, that is, the proximal end, diaphysis and distal end. The measurements of the bone-salt amount were conducted using an Aloka DCS-600 model by dual energy X-ray absorptiometry (DXA).

Acute toxicity test = details: in vivo, sc; subcutaneous, Wistar rat
Protocol: An acute toxicity test of the invention compound 11β-OH-Δ^4 -A was conducted in the following manner.
To a Wistar rat, 11β-OH-Δ^4 -A was subcutaneously administered in an amount considered to be an intoxicating dose. The conditions of the rat were observed and at the same time, the LD50 value was determined.

[4] = tested on: Osteogenic Precursor Cells in Bone Marrow; assay: Effects on the number of osteogenic precursor cells in bone marrow, Experiment 1 (FCFU formation after intraperitoneal administration); format: in vivo; details: 1 mg/kg intraperitoneal, 7 successive days; Wistar rat, N = 4; after 7 days incubation
Protocol: as §1
Influence of the intraperitoneal administration of
the invention compound at 1 mg/kg for 7 successive
days on the formation of FCFUs:
The number of FCFUs (after 7 days) (Wistar rat N = 4)

[5] = tested on: osteogenic precursor cells; assay: Improving effects on the osteogenesis depression in postovariectomy osteoporosis (FCFU forming ability); format: in vivo, female Wistar rat (ovariectomized)
Protocol: From a 7-weeks old female Wistar rat, the ovaria were both excised and three months after that, administration of a drug was started. As the drug, 11β-OH-Δ^4 -A, was administered dorsi-subcutaneously three times a week, each, at 0.1 mg/kg or 1 mg/kg. Subsequent to the administration of the drug for 1 month, the femurs and shinbones were collected. From the right femur and both the shinbones, osteoblasts were collected and the formation of colonies (FCFUs) of osteogenic precursor cells was observed.

[6] = tested on: anterior lobe of prostate; assay: Androgenic action, Hershberge method (1); format: in vivo, castrated Wistar male rat; details: 10 successive days, FIG. 8
Protocol: (§2) (1) In accordance with the Hershberge method, a castrated, 4-weeks old, Wistar, male rat (6 rats per group) was subcutaneously administered with 11-OH-Δ^4- A at 0.1-0.3 mg/rat/day for 10 successive days. Similarly, a vehicle (sesame oil) was administered to the Sham-operated group and a control group, and testosterone propionate (T.P.) was administered at 0.1 mg/rat/day as a positive control. On the day following the completion of the administration, the anterior lobe of prostate and the musculus levator ani were excised and weighed. From a change in the weight of the anterior lobe of the prostate and the musculus levator ani, androgenic action and anabolic action were studied.

musculus levator ani = assay: Anabolic action, Hershberge method (1); format: in vivo, castrated Wistar male rat; details: 0.3 mg/rat/day subcutaneous, 10 successive days; FIG. 8
Protocol: as §2

In the case of C[C@]12CC[C@H](O)CC1=CC[C@@H]1[C@@H]2CC[C@]2(C)C(=O)CC[C@@H]12 [dihydroepiandrosterone (DHEA), dihydroepiandrosterone], the “effect on bone mass of ovariectomized animals” value (shortened to “effect on bone mass”) [1] is listed as “extremely weak” and the “effect on bone mass” value ([1]; listed as dihydroepiandrosterone) is listed as “bone-salt improving effects on the ovariectomized rat”.

For C[C@]12CC[C@H]3[C@@H](CCC4=CC(=O)CC[C@@]43C)[C@@H]1CC[C@@H]2O [Testosterone, reference compound], the “The number of FCFUs positive for alkaline phosphatase” value (“The number of FCFUs positive” for short) ([2]; 1 mg/kg subcutaneous) was 62 ± 5 and the “The total FCFU number” value ([2]; 1 mg/kg subcutaneous) was 149 ± 5.

With C[C@]12C=CC(=O)C=C1CC[C@@H]1[C@@H]2[C@@H](O)C[C@]2(C)C(=O)CC[C@@H]12 [11β-OH-Δ^1,4 -A, 11β-hydroxy-1,4-androstadiene-3,17-dione] the “The number of FCFUs positive” value ([2]; 0.1 mg/kg subcutaneous) was 85 ± 11, the “The total FCFU number” value ([2]; 0.1 mg/kg subcutaneous) was 178 ± 20 and the “The number of FCFUs positive” value ([2]; 1 mg/kg subcutaneous) was 117 ± 12. The “The total FCFU number” value ([2]; 1 mg/kg subcutaneous) was 217 ± 22.

In the case of C[C@]12CCC(=O)C=C1CC[C@@H]1[C@@H]2[C@@H](O)C[C@]2(C)C(=O)CC[C@@H]12 [11β-OH-Δ^4 -A, 11β-hydroxy-4-androstene-3,17-dione], the Serum osteocalcin concentration (osteocalcin; 0.1 mg/kg intraperitoneal, 7 successive days) is reported as 72.6 ± 2.7 ng/mL, the Serum osteocalcin concentration (osteocalcin; 5 mg/kg) is reported as 75.5 ± 1.0 ng/mL and the “concentration of osteocalcin (in words)” value (osteocalcin; successive administration) is reported as “increase the concentration of osteocalcin”. The “The number of FCFUs positive” value ([2]; 0.1 mg/kg subcutaneous) was 96 ± 16, the “The total FCFU number” value ([2]; 0.1 mg/kg subcutaneous) was 180 ± 9 and the “The number of FCFUs positive” value ([2]; 1 mg/kg subcutaneous) was 128 ± 19. For the same compound, the “The total FCFU number” value ([2]; 1 mg/kg subcutaneous) was 189 ± 26, the “bone-salt amount at places of the femur” value ([3]; 1 mg/kg dorsi-subcutaneous) was “recovered to similar levels to those of the Sham-operated rat” and the “bone-salt effects compared with dihydroepiandrosterone” value ([3]; 1 mg/kg each, dorsi-subcutaneous) was “more potent than those of dihydroepiandrosterone”. For the same compound, the LD50 (Acute toxicity test) was at least 1000 mg/kg, the “The number of FCFUs positive” value [4] was 40 ± 11 and the “The total FCFU number” value [4] was 160 ± 35. For the same compound, the “osteogenesis depression observed after the ovariectomy” value ([5]; 0.1 mg/kg thrice a week for a month) was “successfully normalized back the osteogenesis depression observed after the ovariectomy”, the FCFU formation ([5]; 0.1 mg/kg, dorsi-subcutaneous, three times a week, 1 month, FIG. 2) was “a marked increase in the FCFU formation” and the “weight of the prostate” value ([6]; 0.1-0.3 mg/rat/day (0.6-1.8 mg/kg/day) subcutaneous) was “a significant increase in the weight of the prostate”. For the same compound, the Androgenic action ([6]; 0.1-0.3 mg/rat/day subcutaneous) was “very weak” and the “weight of the musculus levator ani (anabolic action)” value (musculus levator ani) was “An increase in the weight of the musculus levator ani”.

For estrogen, the “effect on bone mass” value [1] is listed as “evident curative effect for a decrease in the bone mass of an ovariectomized animal”.
